Earlier results as cited in PubChem BioAssay AID1259409 (Chemical Carcinogenesis Research Information System (CCRIS), 2018).

Test system: rodent chemically induced tumor inhibition, incidence and multiplicity
Assay: CCRIS tumor inhibitor studies
Settings: Route [Inhibitor]: ORAL

O=[Se](O)O
tumour outcome (control, treated, inhibition, significance) (Carcinogen: DIETHYLNITROSAMINE, 55-18-5, Dose [Inhibitor]: 0, 10 MG/L IN DRINKING WATER FOR DURATION OF STUDY BEGINNING 4 D POST CARCINOGEN TREATMENT (STUDY DURATION: 6 MO), Species: RAT, Strain/Sex: BD6/FEMALE, Target Tissue: Type of Lesion: ESOPHAGUS: TUMOR, Dose [Carcinogen]: 80 MG/KG BW 1/WK FOR 9 WK, Promoter: NONE USED): 29%, 18%, 38%, not significant
tumour outcome (control, treated, inhibition, significance) (Carcinogen: DIETHYLNITROSAMINE, 55-18-5, Dose [Inhibitor]: 0, 10 MG/L IN DRINKING WATER FOR DURATION OF STUDY BEGINNING 7 D PRIOR TO CARCINOGEN TREATMENT (STUDY DURATION: 6 MO), Species: RAT, Strain/Sex: BD6/FEMALE, Target Tissue: Type of Lesion: ESOPHAGUS: TUMOR, Dose [Carcinogen]: 80 MG/KG BW 1/WK FOR 7 WK, Promoter: NONE USED): 25%, 14%, 44%, not significant
tumour outcome (control, treated, inhibition, significance) (Carcinogen: DIETHYLNITROSAMINE, 55-18-5, Dose [Inhibitor]: 0, 10 MG/L IN DRINKING WATER FOR DURATION OF STUDY BEGINNING 7 D PRIOR TO CARCINOGEN TREATMENT (STUDY DURATION: 6 MO), Species: RAT, Strain/Sex: BD6/FEMALE, Target Tissue: Type of Lesion: LIVER: TUMOR, Dose [Carcinogen]: 80 MG/KG BW 1/WK FOR 7 WK, Promoter: NONE USED): 64%, 31%, 52%, p<0.05
tumour outcome (control, treated, inhibition, significance) (Carcinogen: DIETHYLNITROSAMINE, 55-18-5, Dose [Inhibitor]: 0, 10 MG/L IN DRINKING WATER FOR DURATION OF STUDY BEGINNING 7 D PRIOR TO FIRST CARCINOGEN DOSE (STUDY DURATION: 6 MO), Species: RAT, Strain/Sex: BD6/FEMALE, Target Tissue: Type of Lesion: ESOPHAGUS: TUMOR, Dose [Carcinogen]: 80 MG/KG BW 1/WK FOR 8 WK, Promoter: NONE USED): 31%, 39%, -26%, not significant
tumour outcome (control, treated, inhibition, significance) (Carcinogen: DIETHYLNITROSAMINE, 55-18-5, Dose [Inhibitor]: 0, 10 MG/L IN DRINKING WATER FOR DURATION OF STUDY BEGINNING 7 D PRIOR TO FIRST CARCINOGEN DOSE (STUDY DURATION: 6 MO), Species: RAT, Strain/Sex: BD6/FEMALE, Target Tissue: Type of Lesion: ESOPHAGUS: TUMOR, Dose [Carcinogen]: 100 MG/L IN DRINKING WATER FOR 3.5 MO, Promoter: NONE USED): 37%, 25%, 32%, not significant
tumour outcome (control, treated, inhibition, significance) (Carcinogen: DIETHYLNITROSAMINE, 55-18-5, Dose [Inhibitor]: 0, 10 MG/L IN DRINKING WATER FOR DURATION OF STUDY BEGINNING 7 D PRIOR TO FIRST CARCINOGEN DOSE (STUDY DURATION: 6 MO), Species: RAT, Strain/Sex: BD6/FEMALE, Target Tissue: Type of Lesion: LIVER: TUMOR, Dose [Carcinogen]: 80 MG/KG BW 1/WK FOR 8 WK, Promoter: NONE USED): 94%, 69%, 27%, not significant
tumour outcome (control, treated, inhibition, significance) (Carcinogen: DIETHYLNITROSAMINE, 55-18-5, Dose [Inhibitor]: 0, 10 MG/L IN DRINKING WATER FOR DURATION OF STUDY BEGINNING 7 D PRIOR TO FIRST CARCINOGEN DOSE (STUDY DURATION: 6 MO), Species: RAT, Strain/Sex: BD6/FEMALE, Target Tissue: Type of Lesion: LIVER: TUMOR, Dose [Carcinogen]: 100 MG/L IN DRINKING WATER FOR 3.5 MO, Promoter: NONE USED): 95%, 94%, 1%, not significant
tumour outcome (control, treated, inhibition, significance) (Carcinogen: DIETHYNITROSAMINE, 55-18-5, Dose [Inhibitor]: 0, 1 MG/L IN DRINKING WATER FOR DURATION OF STUDY BEGINNING 7 D PRIOR TO FIRST CARCINOGEN DOSE (STUDY DURATION: 6 MO), Species: RAT, Strain/Sex: BD6/FEMALE, Target Tissue: Type of Lesion: LIVER: TUMOR, Dose [Carcinogen]: 80 MG/KG BW 1/WK FOR 8 WK, Promoter: NONE USED): 85%, 75%, 12%, not significant
tumour outcome (control, treated, inhibition, significance) (Carcinogen: ETHYLNITROSOUREA, 759-73-9, Dose [Inhibitor]: 0, 4 MG/L TAP DRINKING WATER FOR LIFE (STUDY DURATION: 310 D), Species: RAT, Strain/Sex: ALBINO/MALE,FEMALE, Target Tissue: Type of Lesion: KIDNEY: MESENCHYMAL TUMOR OR ADENOCARCINOMA, Dose [Carcinogen]: 75 MG/KG IN SALINE BY INTRAVENOUS INJECTION ONCE 21 D AFTER CONCEPTION): 33/89 (37%), 20/55 (36%), 3%, not calculated
tumour outcome (control, treated, inhibition, significance) (Carcinogen: ETHYLNITROSOUREA, 759-73-9, Dose [Inhibitor]: 0, 4 MG/L TAP DRINKING WATER FOR LIFE (STUDY DURATION: 310 D), Species: RAT, Strain/Sex: ALBINO/MALE,FEMALE, Target Tissue: Type of Lesion: SPINAL CORD: TUMOR, Dose [Carcinogen]: 75 MG/KG IN SALINE BY INTRAVENOUS INJECTION ONCE 21 D AFTER CONCEPTION): 55/89 (62%), 32/55 (58%), 6%, not calculated
tumour outcome (control, treated, inhibition, significance) (Carcinogen: ETHYLNITROSOUREA, 759-73-9, Dose [Inhibitor]: 0, 4 MG/L TAP DRINKING WATER FOR LIFE (STUDY DURATION: 310 D), Species: RAT, Strain/Sex: ALBINO/MALE/FEMALE, Target Tissue: Type of Lesion: BRAIN: GLIOMA OR ASTROCYTOMA, Dose [Carcinogen]: 75 MG/KG IN SALINE BY INTRAVENOUS INJECTION ONCE 21 D AFTER CONCEPTION): 54/89 (61%), 33/55 (60%), 2%, not calculated
tumour outcome (control, treated, inhibition, significance) (Carcinogen: ETHYLNITROSOUREA, 759-73-9, Dose [Inhibitor]: 0, 4 MG/L TAP DRINKING WATER FOR LIFE (STUDY DURATION: 319 D), Species: RAT, Strain/Sex: ALBINO/MALE,FEMALE, Target Tissue: Type of Lesion: NERVOUS SYSTEM: SCHWANNOMA, Dose [Carcinogen]: 75 MG/KG IN SALINE BY INTRAVENOUS INJECTION ONCE 21 D AFTER CONCEPTION): 37/89 (42%), 21/55 (38%), 10%, not calculated
tumour outcome (control, treated, inhibition, significance) (Carcinogen: METHYLAZOXYMETHANOL, 590-96-5, Dose [Inhibitor]: 4 PPM IN DRINKING WATER DAILY FOR 20 WK STARTING SIMULTANEOUSLY WITH CARCINOGEN TREATMENT AND CONTINUING THROUGH END OF, Species: RAT, Strain/Sex: SPRAGUE-DAWLEY/MALE, Target Tissue: Type of Lesion: COLON: ADENOCARCINOMA, Dose [Carcinogen]: 20 MG/KG BW 1/WK FOR 20 WK, Promoter: NONE USED): 14/14 (100%), 14/15 (93%), 7%, not significant
tumour outcome (control, treated, inhibition, significance) (Carcinogen: METHYLCHOLANTHRENE, 56-49-5, Dose [Inhibitor]: 0, 1 PPM IN DRINKING WATER FOR 13 WK BEGINNING 1 WK PRIOR TO CARCINOGEN TREATMENT (STUDY DURATION: 13 WK), Species: MOUSE, Strain/Sex: SWISS/FEMALE, Target Tissue: Type of Lesion: UTERUS: SQUAMOUS CELL TUMOR, Dose [Carcinogen]: 600 UG IN BEESWAX IMPREGNATED COTTON THREAD INSERTED INTO UTERINE CERVIX CANAL, Promoter: NONE USED): 18/25 (72%), 13/35 (37%), 49%, p<0.05
tumour outcome (control, treated, inhibition, significance) (Carcinogen: N'-NITROSOBIS(2-OXOPROPYL)AMINE, 60599-38-4, Dose [Inhibitor]: 0.1, 4 PPM (43.5 UG/D) IN DRINKING WATER BEGINNING 8 WK PRIOR TO FIRST CARCINOGEN DOSE AND CONTINUING FOR DURATION OF ST, Species: HAMSTER, Strain/Sex: SYRIAN/FEMALE, Target Tissue: Type of Lesion: PANCREAS: TUMOR, Dose [Carcinogen]: 10 MG/KG IN 0.9% SALINE 1/WK FOR 10 WK, Promoter: NONE USED): 88%, 88%, 0%
